Values of other authors as cited in US20160354364A1, “Pharmaceutical Compositions” (Alpharma Pharmaceuticals LLC, priority 2008, published 2016).

Conditions: in vivo

SMILES: O=C1CC[C@@]2(O)[C@H]3Cc4ccc(O)c5c4[C@@]2(CCN3CC2CC2)[C@H]1O5 [Naltrexone, naltrexone]
- time of absorption following oral administration: ≤ 1 h
